Values of other authors as cited in patent US20030136407A1, “Liquid composition to be vaporized for inhibiting increase in blood sugar level, vaporizer for the same and use of the same” (priority 1999, published 2003).

Test system: Ehrlich Ascites Tumour Cells
Details: in vitro; Chem. Pharm. Bull. 41(12) 2129-2131 (1993)

C[C@H]1[C@H](C)CC[C@]2(C(=O)O)CC[C@]3(C)C(=CC[C@@H]4[C@@]5(C)C[C@@H](O)[C@H](O)C(C)(C)[C@@H]5CC[C@]43C)[C@H]12 [corosolic acid]
activation of the mobility of grape sugar: activates the mobility of grape sugar
